In ChEMBL document CHEMBL1201862, “PubChem BioAssay data set” (2004):
The source made the active and inactive calls.

Legend:
INS1 = experiment: INS-1E survival protection against cytokine death – cell-based, luminescence, retest, dose response (AID 449756); format: functional; conditions: Rattus norvegicus;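 note: cell death triggered by IL-1 beta plus TNF-alpha plus IFN-gamma mixture; protective hits raise ATP signal compared with cytokine alone wells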
[1] = microbe, parasite or virus in culture; format: functional; conditions: Mycobacterium tuberculosis
[2] = molecular target: Botulinum neurotoxin type A (Clostridium botulinum (strain Hall / ATCC 3502 / NCTC 13319 / Type A), UniProt P0DPI1); experiment: High-throughput multiplex microsphere dose response for inhibitors of toxin protease, specifically Botulinum neurotoxin light chain A protease, compounds from Cherry Pick 01.; format: functional; conditions: read-out: EC50_MICROM
[3] = molecular target: T1, High affinity choline transporter 1 (Homo sapiens, UniProt Q9GZV3); experiment: human choline transporter potentiators, potency – cell-based, 10-point CRC, membrane potential dye, dose response (AID 602376); format: functional
T1 sequence (Q9GZV3 whole entry): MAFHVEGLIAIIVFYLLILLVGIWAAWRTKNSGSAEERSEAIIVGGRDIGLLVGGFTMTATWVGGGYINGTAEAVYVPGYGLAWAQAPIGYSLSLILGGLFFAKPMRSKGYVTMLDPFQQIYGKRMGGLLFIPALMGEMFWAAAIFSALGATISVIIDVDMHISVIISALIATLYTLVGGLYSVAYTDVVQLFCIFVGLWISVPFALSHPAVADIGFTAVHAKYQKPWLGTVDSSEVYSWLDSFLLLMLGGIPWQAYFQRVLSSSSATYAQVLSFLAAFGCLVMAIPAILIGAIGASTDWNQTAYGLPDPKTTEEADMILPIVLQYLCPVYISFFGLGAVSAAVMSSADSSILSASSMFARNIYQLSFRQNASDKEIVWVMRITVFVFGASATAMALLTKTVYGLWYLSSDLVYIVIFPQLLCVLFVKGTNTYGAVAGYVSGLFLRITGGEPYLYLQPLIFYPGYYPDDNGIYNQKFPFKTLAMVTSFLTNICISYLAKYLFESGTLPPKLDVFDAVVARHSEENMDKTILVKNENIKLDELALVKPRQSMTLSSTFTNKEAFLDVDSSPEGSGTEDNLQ

[4] = bead-based luminescence quenchers, dual-tagged ARNT – biochemical, AlphaScreen, cherry-pick, artefact control for ARNT-TACC3 interaction inhibitor project, dose response (AID 651705); format: functional;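 note: AlphaScreen bead proximity signal that flags compounds interfering with the detection technology; potency reflects signal decrease which marks the compound as an assay artifact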
Caspase-3 = molecular target: T2, Caspase-3 (Homo sapiens, UniProt P42574); experiment: Dose-response confirmation of uHTS inhibitor hits of Sentrin-Specific Protease 8 in a Caspase-3 Fluorescence assay.; format: functional
T2 sequence (P42574 whole entry): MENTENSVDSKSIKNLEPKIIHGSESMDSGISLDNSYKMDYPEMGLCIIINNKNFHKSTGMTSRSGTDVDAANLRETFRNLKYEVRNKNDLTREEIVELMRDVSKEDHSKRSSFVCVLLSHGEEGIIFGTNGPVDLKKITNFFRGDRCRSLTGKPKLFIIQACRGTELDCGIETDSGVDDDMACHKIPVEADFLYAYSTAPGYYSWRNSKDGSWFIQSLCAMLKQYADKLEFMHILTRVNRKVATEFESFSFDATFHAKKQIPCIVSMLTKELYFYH

[5] = molecular target: T3, Sentrin-specific protease 8 (Homo sapiens, UniProt Q96LD8); format: functional
T3 sequence (Q96LD8 whole entry): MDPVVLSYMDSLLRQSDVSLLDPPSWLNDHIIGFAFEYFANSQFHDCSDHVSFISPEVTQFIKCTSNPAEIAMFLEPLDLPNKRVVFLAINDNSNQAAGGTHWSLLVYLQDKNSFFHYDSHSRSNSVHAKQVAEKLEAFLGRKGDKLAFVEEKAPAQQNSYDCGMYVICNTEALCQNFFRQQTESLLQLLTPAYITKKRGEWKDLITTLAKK

[6] = molecular target: Latent membrane protein 1 (Human herpesvirus 4 (strain B95-8), UniProt P03230); experiment: LMP1 TES1 pathway selectivity over dsRED control – imaging, HEK293T, dual-color eGFP/dsRED, cherry-picks, selectivity assay for LMP1 NF-kB inhibitor project, dose response (AID 588398); format: functional, cell-based
[7] = viability loss in THP-1 monocytes – THP-1 cells, cytotoxicity control for Vif-APOBEC3G degradation inhibitor project, dose response (AID 1117359); format: functional; conditions: THP-1
[8] = molecular target: T3, Sentrin-specific protease 8; format: functional; remark: listed apart in the source
[9] = molecular target: Glutathione-S-transferase (Schistosoma japonicum, UniProt Q26513); experiment: GST-antibody interaction or FRET quenching – biochemical, TR-FRET, artefact control for Vif-APOBEC3G degradation inhibitor project, dose response (AID 1117362); format: functional
Genome polyprotein = Genome polyprotein (dengue virus type 2, UniProt P29990); experiment: flavivirus cap methylation enzyme inhibition – biochemical, confirmation dose response, primary screen (AID 588689); format: functional
[10] = molecular target: T4, DNA repair protein RAD52 homolog (Homo sapiens, UniProt P43351); format: functional, biochemical
T4 sequence (P43351 whole entry): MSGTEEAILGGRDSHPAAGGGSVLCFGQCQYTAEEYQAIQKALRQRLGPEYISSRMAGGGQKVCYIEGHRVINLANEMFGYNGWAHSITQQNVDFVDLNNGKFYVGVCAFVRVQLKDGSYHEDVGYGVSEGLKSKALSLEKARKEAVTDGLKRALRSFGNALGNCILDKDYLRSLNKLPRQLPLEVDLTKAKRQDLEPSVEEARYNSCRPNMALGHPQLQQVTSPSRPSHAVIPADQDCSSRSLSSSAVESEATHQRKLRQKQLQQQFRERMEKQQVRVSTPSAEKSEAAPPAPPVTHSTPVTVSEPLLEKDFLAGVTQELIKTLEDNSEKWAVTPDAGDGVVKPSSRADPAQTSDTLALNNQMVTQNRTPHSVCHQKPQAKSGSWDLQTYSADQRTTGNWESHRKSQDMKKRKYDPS

[11] = molecular target: Dual specificity protein kinase CLK4 (Homo sapiens, UniProt Q9HAZ1); format: functional
[12] = molecular target: cAMP-dependent protein kinase catalytic subunit alpha (Homo sapiens, UniProt P17612); format: functional
[13] = molecular target: Glycogen synthase kinase-3 beta (Homo sapiens, UniProt P49841); format: functional;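 note: value comes from a broad kinome profiling panel, with GSK3B as the panel member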
[14] = molecular target: Serine/threonine-protein kinase pim-1 (Homo sapiens, UniProt P11309); format: functional
[15] = molecular target: Interleukin-1 receptor-associated kinase 4 (Homo sapiens, UniProt Q9NWZ3); format: functional
[16] = molecular target: Mitogen-activated protein kinase kinase kinase kinase 4 (Homo sapiens, UniProt O95819); format: functional
[17] = molecular target: Homeodomain-interacting protein kinase 2 (Homo sapiens, UniProt Q9H2X6); format: functional;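 note: measured within a kinome-wide kinase profiling panel, HIPK2 being one panel member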
[18] = molecular target: Cell division cycle 7-related protein kinase (Homo sapiens, UniProt O00311); format: functional;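 note: value obtained from a kinome-wide kinase panel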
[19] = molecular target: Cyclin-dependent kinase 2 (Homo sapiens, UniProt P24941); format: functional;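 note: CDK2 measured as one member of a broad kinome profiling panel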

Chain of Botulinum neurotoxin type A (P0DPI1 2-448 limits assumed): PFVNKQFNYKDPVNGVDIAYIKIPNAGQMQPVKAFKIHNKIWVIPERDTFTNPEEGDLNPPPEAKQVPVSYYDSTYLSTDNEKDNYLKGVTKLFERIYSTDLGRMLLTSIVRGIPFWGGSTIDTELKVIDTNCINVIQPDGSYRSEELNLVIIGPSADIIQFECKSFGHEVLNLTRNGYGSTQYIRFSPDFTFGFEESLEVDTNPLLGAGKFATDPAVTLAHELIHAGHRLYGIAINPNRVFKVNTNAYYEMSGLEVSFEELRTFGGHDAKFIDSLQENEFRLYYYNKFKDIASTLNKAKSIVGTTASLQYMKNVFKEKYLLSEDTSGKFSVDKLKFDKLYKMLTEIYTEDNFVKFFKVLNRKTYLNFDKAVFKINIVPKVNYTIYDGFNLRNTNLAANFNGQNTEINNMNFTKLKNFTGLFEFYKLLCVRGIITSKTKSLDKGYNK
Chain of Glycogen synthase kinase-3 beta (P49841 whole entry): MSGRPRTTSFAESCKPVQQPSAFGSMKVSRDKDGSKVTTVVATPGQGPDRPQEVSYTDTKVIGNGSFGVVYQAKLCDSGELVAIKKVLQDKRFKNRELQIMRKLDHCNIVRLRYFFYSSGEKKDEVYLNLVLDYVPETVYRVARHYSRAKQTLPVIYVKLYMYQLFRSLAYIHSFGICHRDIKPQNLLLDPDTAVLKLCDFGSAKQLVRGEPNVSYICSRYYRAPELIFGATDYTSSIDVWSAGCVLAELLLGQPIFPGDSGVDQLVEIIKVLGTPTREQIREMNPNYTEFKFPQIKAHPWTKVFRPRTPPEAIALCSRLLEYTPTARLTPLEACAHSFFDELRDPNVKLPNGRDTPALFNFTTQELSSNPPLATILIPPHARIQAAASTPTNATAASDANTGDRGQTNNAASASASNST
Chain of Genome polyprotein (P29990 2492-3391 limits assumed): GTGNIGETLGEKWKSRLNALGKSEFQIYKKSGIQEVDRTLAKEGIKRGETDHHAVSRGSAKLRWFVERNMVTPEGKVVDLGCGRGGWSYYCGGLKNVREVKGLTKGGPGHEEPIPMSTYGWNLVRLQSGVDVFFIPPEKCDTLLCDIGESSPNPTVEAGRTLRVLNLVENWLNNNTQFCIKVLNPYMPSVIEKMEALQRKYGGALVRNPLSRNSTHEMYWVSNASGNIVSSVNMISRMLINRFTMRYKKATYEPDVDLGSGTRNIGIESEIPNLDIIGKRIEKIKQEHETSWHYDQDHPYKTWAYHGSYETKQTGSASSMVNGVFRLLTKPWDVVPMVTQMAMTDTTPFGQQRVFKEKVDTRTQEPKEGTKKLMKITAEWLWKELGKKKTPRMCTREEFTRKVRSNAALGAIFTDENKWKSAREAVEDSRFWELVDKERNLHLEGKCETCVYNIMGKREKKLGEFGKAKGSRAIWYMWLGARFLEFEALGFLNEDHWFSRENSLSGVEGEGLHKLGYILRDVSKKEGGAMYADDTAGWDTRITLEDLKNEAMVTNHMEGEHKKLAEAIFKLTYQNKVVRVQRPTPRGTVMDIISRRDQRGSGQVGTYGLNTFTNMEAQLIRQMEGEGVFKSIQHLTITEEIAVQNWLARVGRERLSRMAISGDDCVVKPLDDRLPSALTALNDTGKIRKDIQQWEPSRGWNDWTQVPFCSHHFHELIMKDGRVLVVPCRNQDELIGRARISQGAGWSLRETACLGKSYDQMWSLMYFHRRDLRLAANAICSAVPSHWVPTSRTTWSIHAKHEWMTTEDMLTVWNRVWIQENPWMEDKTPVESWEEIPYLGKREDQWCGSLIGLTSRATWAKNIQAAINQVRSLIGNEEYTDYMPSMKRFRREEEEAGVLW
Chain of Serine/threonine-protein kinase pim-1 (P11309 whole entry): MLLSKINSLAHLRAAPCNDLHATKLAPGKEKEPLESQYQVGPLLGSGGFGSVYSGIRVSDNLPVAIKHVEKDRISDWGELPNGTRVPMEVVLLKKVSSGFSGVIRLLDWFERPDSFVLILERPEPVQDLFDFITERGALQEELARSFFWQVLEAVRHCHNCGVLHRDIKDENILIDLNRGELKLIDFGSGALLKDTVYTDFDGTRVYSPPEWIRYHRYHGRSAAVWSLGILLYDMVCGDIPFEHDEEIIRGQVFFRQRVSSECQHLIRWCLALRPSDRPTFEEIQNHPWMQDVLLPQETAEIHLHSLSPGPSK
Chain of Cell division cycle 7-related protein kinase (O00311 whole entry): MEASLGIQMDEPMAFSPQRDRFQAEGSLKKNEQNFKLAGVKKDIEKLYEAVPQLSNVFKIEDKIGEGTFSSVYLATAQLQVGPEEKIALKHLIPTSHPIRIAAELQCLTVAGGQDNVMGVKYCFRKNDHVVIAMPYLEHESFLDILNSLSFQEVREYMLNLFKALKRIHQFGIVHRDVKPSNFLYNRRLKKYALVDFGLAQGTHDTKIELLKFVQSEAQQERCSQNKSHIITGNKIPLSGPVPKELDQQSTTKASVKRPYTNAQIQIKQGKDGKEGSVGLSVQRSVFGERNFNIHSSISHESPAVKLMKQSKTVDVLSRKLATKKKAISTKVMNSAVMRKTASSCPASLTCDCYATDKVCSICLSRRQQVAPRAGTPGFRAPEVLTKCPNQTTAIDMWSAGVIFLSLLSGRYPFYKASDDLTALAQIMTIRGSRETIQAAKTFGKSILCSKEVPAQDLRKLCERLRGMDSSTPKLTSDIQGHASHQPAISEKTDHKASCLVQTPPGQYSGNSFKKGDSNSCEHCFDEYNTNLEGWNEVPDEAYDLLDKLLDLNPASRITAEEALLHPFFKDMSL
Chain of Dual specificity protein kinase CLK4 (Q9HAZ1 whole entry): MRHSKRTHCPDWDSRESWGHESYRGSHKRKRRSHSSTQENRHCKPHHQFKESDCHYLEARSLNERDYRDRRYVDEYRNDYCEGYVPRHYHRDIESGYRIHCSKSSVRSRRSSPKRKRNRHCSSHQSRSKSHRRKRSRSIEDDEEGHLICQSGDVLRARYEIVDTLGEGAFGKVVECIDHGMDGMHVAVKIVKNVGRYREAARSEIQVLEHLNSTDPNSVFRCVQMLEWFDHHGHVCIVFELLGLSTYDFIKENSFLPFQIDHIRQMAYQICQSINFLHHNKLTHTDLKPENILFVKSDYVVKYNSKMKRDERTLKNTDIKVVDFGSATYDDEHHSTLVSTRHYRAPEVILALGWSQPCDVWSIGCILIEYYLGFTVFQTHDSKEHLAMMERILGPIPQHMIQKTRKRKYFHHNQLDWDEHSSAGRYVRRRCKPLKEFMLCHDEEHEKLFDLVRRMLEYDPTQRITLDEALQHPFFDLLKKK
Chain of Latent membrane protein 1 (P03230 whole entry): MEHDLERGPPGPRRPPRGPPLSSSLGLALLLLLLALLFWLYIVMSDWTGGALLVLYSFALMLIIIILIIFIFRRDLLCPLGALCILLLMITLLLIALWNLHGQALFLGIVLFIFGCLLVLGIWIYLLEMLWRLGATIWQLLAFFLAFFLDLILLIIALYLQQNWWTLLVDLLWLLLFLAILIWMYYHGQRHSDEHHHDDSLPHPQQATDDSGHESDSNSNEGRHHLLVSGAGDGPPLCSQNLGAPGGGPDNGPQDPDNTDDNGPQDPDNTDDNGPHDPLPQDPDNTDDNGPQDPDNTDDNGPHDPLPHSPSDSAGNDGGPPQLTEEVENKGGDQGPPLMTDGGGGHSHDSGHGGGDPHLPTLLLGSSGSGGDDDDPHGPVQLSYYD
Chain of Mitogen-activated protein kinase kinase kinase kinase 4 (O95819 whole entry): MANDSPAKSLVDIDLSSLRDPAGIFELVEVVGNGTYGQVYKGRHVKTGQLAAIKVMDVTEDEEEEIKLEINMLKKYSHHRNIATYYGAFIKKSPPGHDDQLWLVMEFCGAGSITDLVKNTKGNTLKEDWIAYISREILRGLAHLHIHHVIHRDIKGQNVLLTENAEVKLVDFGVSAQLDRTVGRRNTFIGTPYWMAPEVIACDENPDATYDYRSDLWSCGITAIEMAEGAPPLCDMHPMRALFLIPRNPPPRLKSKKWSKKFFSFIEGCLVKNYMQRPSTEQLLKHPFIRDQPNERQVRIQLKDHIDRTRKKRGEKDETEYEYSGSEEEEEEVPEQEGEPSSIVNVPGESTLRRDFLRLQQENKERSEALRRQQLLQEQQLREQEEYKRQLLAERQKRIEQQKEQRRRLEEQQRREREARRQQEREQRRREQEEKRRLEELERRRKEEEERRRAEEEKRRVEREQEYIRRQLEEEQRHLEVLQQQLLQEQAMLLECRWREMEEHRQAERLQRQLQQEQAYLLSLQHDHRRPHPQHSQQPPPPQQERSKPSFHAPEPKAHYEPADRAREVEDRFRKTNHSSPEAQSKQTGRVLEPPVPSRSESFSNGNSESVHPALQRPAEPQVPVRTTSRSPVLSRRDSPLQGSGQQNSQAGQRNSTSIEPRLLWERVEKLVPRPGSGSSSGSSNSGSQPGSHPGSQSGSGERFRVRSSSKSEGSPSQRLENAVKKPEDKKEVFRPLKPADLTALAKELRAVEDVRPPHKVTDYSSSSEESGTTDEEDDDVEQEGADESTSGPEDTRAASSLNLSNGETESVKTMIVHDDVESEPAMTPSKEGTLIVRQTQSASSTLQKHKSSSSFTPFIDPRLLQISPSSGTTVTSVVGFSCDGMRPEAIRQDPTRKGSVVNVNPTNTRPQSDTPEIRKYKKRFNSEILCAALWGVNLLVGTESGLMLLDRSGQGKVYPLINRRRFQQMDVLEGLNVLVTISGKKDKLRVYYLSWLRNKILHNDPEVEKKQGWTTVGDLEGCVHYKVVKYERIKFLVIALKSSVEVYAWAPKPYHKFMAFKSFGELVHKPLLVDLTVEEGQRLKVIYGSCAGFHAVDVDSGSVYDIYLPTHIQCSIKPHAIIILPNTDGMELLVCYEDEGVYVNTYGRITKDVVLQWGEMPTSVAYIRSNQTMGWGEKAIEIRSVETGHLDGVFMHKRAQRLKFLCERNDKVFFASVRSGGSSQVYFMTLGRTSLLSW
Chain of Glutathione-S-transferase (Q26513 whole entry): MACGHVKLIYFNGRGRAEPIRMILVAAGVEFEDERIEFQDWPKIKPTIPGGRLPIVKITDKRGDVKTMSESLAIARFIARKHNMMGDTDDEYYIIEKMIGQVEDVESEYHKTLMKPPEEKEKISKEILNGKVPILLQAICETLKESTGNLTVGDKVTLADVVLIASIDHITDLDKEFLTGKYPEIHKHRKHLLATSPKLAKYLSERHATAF

For `O=c1c(Cl)c2oc3ccccc3nc-2c2ccccc12`, the AC50 (INS1) was 2.61 µM (active), the CC50 [1] was > 40 µM (active) and the EC50 [2] was 12.4 µM (active).
With `CCCCCCCCC1=NCCc2c1[nH]c1ccccc21` the EC50 [3] was 13.7 µM (active).
For `COc1cc(NCCCCCCN)c2ncccc2c1OC`, the AC50 [4] was 132 µM (active), the IC50 (Caspase-3) was 4.23 µM (active) and the IC50 [5] was 0.434 µM (active). The AC50 [6] was 34.4 µM (active), the CC50 [7] was > 40 µM (active) and the IC50 [8] was 0.208 µM (active). The IC50 [9] was 2.53 µM (active), the IC50 (Genome polyprotein) was > 100 µM (active) and the AC50 [10] was 0.87 µM (active).
In the case of `Cn1cc(-c2ccccc2)c2nc(-c3ccncc3)cc(=O)n21`, the Ki [11] is reported as 0.0316 µM (active), the Ki [12] is reported as 5.01 µM (active) and the Ki [13] is reported as 0.126 µM (active). The Ki [14] was 2.51 µM (active), the Ki [15] was > 10 µM (inactive) and the Ki [16] was 1.26 µM (active). For the same compound, the Ki [17] was 0.1 µM (active), the Ki [18] was 0.0158 µM (active) and the Ki [19] was > 7.94 µM (inactive).
